Patent publication US20130196052A1, “ANTIMICROBIAL/ANTIBACTERIAL MEDICAL DEVICES COATED WITH TRADITIONAL CHINESE MEDICINES” (ETHICON, INC., priority 2009, published 2013)

Columns and labels:
[1] = cited from earlier work
[2] = in words; cited from earlier work
susceptible strains = details: in words; cited from earlier work
[3] = Particle size analysis by laser diffraction; format: physicochemical; details: commercial grade, needle-like crystals
Procedure: Studies were run using sutures coated with the sodium houttuyfonate antimicrobial coatings disclosed herein, with the sodium houttuyfonate coatings prepared using either ground or unground sodium houttuyfonate. The sutures were coated at two coating levels, using the coating method described hereinabove. Particle size analysis was performed using a Beckman Coulter model LS 320 laser diffraction particle size analyzer. Results for these studies are presented below in Tables 5-7 and graphically depicted in FIGS. 1 and 2.

[4] = test system: Bacillus typhi, and Leptopira; details: in words; cited from earlier work
[5] = test system: Micrococcus catarrhalis, Staphylococcus aureus, Bacillus influenzae, pneumococcus, Escherichia coli, Bacillus dysenteria, Bacillus proteus, Bacillus …; details: in words; cited from earlier work

## CCCCCCCCCC(=O)CC(O)S(=O)(=O)O (centres unmarked) [sodium houttuyfonate]
[1]; cold water
  solubility in cold water: only slightly soluble
[1]; organic solvents such as acetonitrile and methanol
  solubility in most organic solvents: only slightly soluble
[2]
  stability: more stable

## Oc1cc(Cl)ccc1Oc1ccc(Cl)cc1Cl [triclosan]
Susceptible strains
  mode of antibacterial activity: predominantly bacteriostatic activity

## CCCCCCCCCC(=O)CC(O)S(=O)(=O)O (centres unmarked) [Commercial grade sodium houttuyfonate, sodium houttuyfonate]
[3]
  particle size distribution, mean: approximately 145 μm

## CCCCCCCCCC(=O)CC=O [Houttuynin, decanoyl acetaldehyde]
[4]
  effect in vitro: strong effect
[5]
  inhibitory effect in vitro: marked inhibitory effect
[2]
  stability: unstable and prone to polymerize
